Reference: patent US6348468B1, “Pyridazine compounds and compositions containing the same” (Kowa Co., Ltd., priority 1997, dated 2002)

| Compound | melting point [°C] |
| --- | --- |
| COc1ccc(-c2cc(=O)n(CCCOc3ccccc3)nc2-c2ccc(OC)cc2)cc1 [Example 20, 5,6-bis(4-methoxyphenyl)-2-[3-(phenoxy)propyl]-2H-pyridazin-3-one] | 110 to 111 |
| COc1ccc(-c2cc(=O)n(Cc3ccc(Cl)cc3)nc2-c2ccc(OC)cc2)cc1 [Example 33, 5,6-bis(4-methoxyphenyl)-2-(4-chlorobenzyl)-2H-pyridazin-3-one] | 124.2 to 127.3 |
| COC(=O)c1ccc(Cn2nc(-c3ccc(OC)cc3)c(-c3ccc(OC)cc3)cc2=O)cc1 [Example 42, 5,6-bis(4-methoxyphenyl)-2-(4-methoxycarbonylbenzyl)-2H-pyridazin-3-one] | 185.5 to 186.6 |
| COc1ccc(-c2cc(=O)n(Cc3ccccn3)nc2-c2ccc(OC)cc2)cc1 [Example 43, 5,6-bis(4-methoxyphenyl)-2-(2-pyridylmethyl)-2H-pyridazin-3-one] | 116 to 117 |
| COc1ccc(Cn2nc(-c3ccc(SC)cc3)c(-c3ccc(F)cc3)cc2=O)cc1 [Example 62, 5-(4-fluorophenyl)-6-[4-(methylthio)phenyl]-2-(4-methoxybenzyl)-2H-pyridazin-3-one] | 165.3 to 165.7 |
| CSc1ccc(Cn2nc(-c3ccc(SC)cc3)c(-c3ccc(F)cc3)cc2=O)cc1 [Example 63, 5-(4-fluorophenyl)-6-[4-(methylthio)phenyl]-2-[4-(methylthio)benzyl]-2H-pyridazin-3-one] | 116 to 116.1 |
| C[S+]([O-])c1ccc(-c2nn(Cc3ccccc3)c(=O)cc2-c2ccc(Cl)cc2)cc1 (stereo not shown) [Example 85, 2-benzyl-5-(4-chlorophenyl)-6-[4-(methylsulfinyl)phenyl]-2H-pyridazin-3-one] | 143.7 to 144.7 |

Second part, the molecule after the results:

| melting point [°C] | Compound |
| --- | --- |
| 197.4 to 198.2 | CSc1ccc(-c2n[nH]c(=O)cc2-c2ccc(F)cc2)cc1 [Example 9, 5-(4-fluorophenyl)-6-[4-(methylthio)phenyl]-2H-pyridazin-3-one] |
| 182.1 to 183.1 | COc1ccc(-c2cc(=O)n(Cc3ccncc3)nc2-c2ccc(OC)cc2)cc1 [Example 45, 5,6-bis(4-methoxyphenyl)-2-(4-pyridylmethyl)-2H-pyridazin-3-one] |
| 165 to 167 | COc1ccc(-c2nn(Cc3ccccc3)c(=O)cc2-c2ccc(Cl)cc2)cc1 [Example 49, 5-(4-chlorophenyl)-6-(4-methoxyphenyl)-2-benzyl-2H-pyridazin-3-one] |
| 142 to 143 | COc1ccc(-c2nn(Cc3ccncc3)c(=O)cc2-c2ccc(Cl)cc2)cc1 [Example 50, 5-(4-chlorophenyl)-6-(4-methoxyphenyl)-2-(4-pyridylmethyl)-2H-pyridazin-3-one] |
| 157.4 to 157.5 | CSc1ccc(-c2nn(Cc3ccc(F)cc3F)c(=O)cc2-c2ccc(Cl)cc2)cc1 [Example 53, 5-(4-chlorophenyl)-6-[4-(methylthio)phenyl]-2-(2,4-difluorobenzyl)-2H-pyridazin-3-one] |
| 154.5 to 155 | CSc1ccc(-c2nn(Cc3ccc(Cl)cc3Cl)c(=O)cc2-c2ccc(Cl)cc2)cc1 [Example 54, 5-(4-chlorophenyl)-6-[4-(methylthio)phenyl]-2-(2,4-dichlorobenzyl)-2H-pyridazin-3-one] |
| 109.3 to 110.2 | CSc1ccc(-c2nn(CC=Cc3ccccc3)c(=O)cc2-c2ccc(Cl)cc2)cc1 [Example 56, 5-(4-chlorophenyl)-6-[4-(methylthio)phenyl]-2-cinnamyl-2H-pyridazin-3-one] |
| 159.8 to 160.7 | CSc1ccc(-c2nn(Cc3cccnc3)c(=O)cc2-c2ccc(F)cc2)cc1 [Example 67, 5-(4-fluorophenyl)-6-[4-(methylthio)phenyl]-2-(3-pyridylmethyl)-2H-pyridazin-3-one] |
| 157.3 to 158.4 | CSc1ccc(-c2nn(Cc3ccccc3)c(=O)cc2-c2ccccc2)cc1 [Example 71, 2-benzyl-6-[4-(methylthio)phenyl]-5-phenyl-2H-pyridazin-3-one] |
